From ChEMBL document CHEMBL5614443, “Hybrids of 3-Hydroxypyridin-4(1H)-ones and Long-Chain 4-Aminoquinolines as Potent Biofilm Inhibitors of Pseudomonas aeruginosa Potentiate Tobramycin and Polymyxin B Activity” (J Med Chem, 2024)
pIC50: −log10 of the molar value. The source made the active and inactive calls. The calls are words filed in the database; no cut-off is given here.

Columns and labels:
[1] = tested on: Pseudomonas aeruginosa; experiment: Synergistic antibacterial activity against Pseudomonas aeruginosa clinical isolate 0815 assessed as reduction in bacterial viability at 10 to 50 uM incubated for 24 hrs in presence of 1/4 MIC of tobramycin by LB agar plate method; type: functional, organism-based; settings: dose 10-50 µM
[2] = tested on: Pseudomonas aeruginosa; experiment: Synergistic antibacterial activity against Pseudomonas aeruginosa PAO1 assessed as fold reduction in bacterial survival rate incubated for 24 hrs in presence of ciprofloxacin by LB agar plate method; type: functional
[3] = tested on: Pseudomonas aeruginosa; experiment: Synergistic antibacterial activity against Pseudomonas aeruginosa PAO1 assessed as reduction in cell viability at 10 to 50 uM incubated for 24 hrs in the presence of 1/4 MIC of tobramycin by LB agar plate method; type: functional, organism-based; settings: dose 10-50 µM
[4] = tested on: Pseudomonas aeruginosa; experiment: Synergistic antibacterial activity against Pseudomonas aeruginosa clinical isolate 1167 assessed as reduction in bacterial viability at 10 to 50 uM incubated for 24 hrs in presence of 1/8 MIC of tobramycin by LB agar plate method; type: functional, organism-based; settings: dose 10-50 µM
[5] = tested on: Pseudomonas aeruginosa; experiment: Antivirulence activity in Pseudomonas aeruginosa clinical isolate 1167 assessed as reduction in pyocyanin production at 10 uM incubated for 24 hrs by absorbance based analysis; type: functional, organism-based
[6] = tested on: Pseudomonas aeruginosa; experiment: Antivirulence activity in Pseudomonas aeruginosa clinical isolate 1167 assessed as reduction in elastase production at 10 uM incubated for 24 hrs by elastin-congo red dye based absorbance assay; type: functional, organism-based
[7] = tested on: Pseudomonas aeruginosa; experiment: Synergistic antibacterial activity against Pseudomonas aeruginosa PAO1 assessed as fold reduction in bacterial survival rate incubated for 24 hrs in presence of azithromycin by LB agar plate method; type: functional
[8] = tested on: Pseudomonas aeruginosa; experiment: Induction of Fe3+ chelating activity in Pseudomonas aeruginosa PAO1 assessed as increase in pyochelin production at 2.5 to 50 uM incubated for 24 hrs by fluorescence microplate reader; settings: dose 2.5-50 µM
[9] = Inhibition of quorum sensing system in wildtype Pseudomonas aeruginosa PAO1 assessed as inhibition of elastase production incubated for 24 hrs by elastin-congo red dye based absorbance assay
[10] = Hemolytic activity in rabbit erythrocytes assessed as hemolysis rate at 200 uM incubated for 2 hrs by microplate reader analysis (reference value: 100 %); type: toxicity, cell-based, Oryctolagus cuniculus, Erythrocyte; settings: read-out: Activity
[11] = tested on: Pseudomonas aeruginosa; experiment: Antibacterial activity against Pseudomonas aeruginosa PAO1 infected in Caenorhabditis elegans assessed as worm survival rate at 10 uM measured after 96 hrs in presence of polymyxin B at 1/2 MIC by bright field microscopic analysis relative to control; type: functional
[12] = tested on: Pseudomonas aeruginosa; experiment: Antibacterial activity against Pseudomonas aeruginosa PAO1 infected in Caenorhabditis elegans assessed as worm survival rate at 50 uM measured after 72 hrs in presence of tobramycin at 1/2 MIC by bright field microscopic analysis relative to control; type: functional
[13] = tested on: Pseudomonas aeruginosa; experiment: Antibiofilm activity against Pseudomonas aeruginosa clinical isolate 1167 assessed as reduction in biofilm content at 10 uM incubated for 24 hrs by crystal violet staining based analysis; type: functional, organism-based
[14] = tested on: Pseudomonas aeruginosa; experiment: Induction of Fe3+ chelating activity in Pseudomonas aeruginosa PAO1 assessed as increase in pyoverdine production by measuring fold change at 50 uM incubated for 24 hrs by fluorescence microplate reader
[15] = tested on: Pseudomonas aeruginosa; experiment: Synergistic antibacterial activity against Pseudomonas aeruginosa PAO1 assessed as reduction in cell viability at 10 to 50 uM incubated for 24 hrs in the presence of 1/2 MIC of polymyxin B by LB agar plate method; type: functional, organism-based; settings: dose 10-50 µM
[16] = tested on: Pseudomonas aeruginosa; experiment: Antibacterial activity against Pseudomonas aeruginosa clinical isolate 1065 assessed as inhibition of bacterial growth incubated for 24 hrs by CLSI protocol based method; type: functional, organism-based
[17] = tested on: Pseudomonas aeruginosa; experiment: Antibiofilm activity against Pseudomonas aeruginosa clinical isolate 1121 assessed as reduction in biofilm content at 10 uM incubated for 24 hrs by crystal violet staining based analysis; type: functional, organism-based
[18] = tested on: Pseudomonas aeruginosa; experiment: Antibacterial activity against Pseudomonas aeruginosa PA14 assessed as inhibition of bacterial growth incubated for 24 hrs by CLSI protocol based method; type: functional, organism-based
[19] = tested on: Pseudomonas aeruginosa; experiment: Antibiofilm activity against Pseudomonas aeruginosa harboring pvds-deficient mutant assessed as inhibition of biofilm formation at 0.1 to 20 uM incubated for 24 hrs by crystal violet staining based analysis; type: functional, organism-based; settings: dose 0.1-20 µM
[20] = tested on: Pseudomonas aeruginosa; experiment: Antibacterial activity against Pseudomonas aeruginosa clinical isolate 1129 assessed as inhibition of bacterial growth incubated for 24 hrs by CLSI protocol based method; type: functional, organism-based
[21] = Inhibition of quorum sensing system in wildtype Pseudomonas aeruginosa PAO1 assessed as inhibition of pyocyanin production incubated for 24 hrs by absorbance based analysis
[22] = tested on: Pseudomonas aeruginosa; experiment: Antivirulence activity in Pseudomonas aeruginosa clinical isolate 1121 assessed as reduction in rhamnolipid production at 10 uM incubated for 24 hrs by absorbance based microtiter plate reader analysis; type: functional, organism-based
[23] = tested on: Pseudomonas aeruginosa; experiment: Synergistic antibacterial activity against Pseudomonas aeruginosa clinical isolate 0815 assessed as reduction in bacterial viability at 10 to 50 uM incubated for 24 hrs in presence of 1/8 MIC of polymyxin B by LB agar plate method; type: functional, organism-based; settings: dose 10-50 µM
[24] = tested on: Pseudomonas aeruginosa; experiment: Antibacterial activity against Pseudomonas aeruginosa clinical isolate 1074 assessed as inhibition of bacterial growth incubated for 24 hrs by CLSI protocol based method; type: functional, organism-based
[25] = tested on: Pseudomonas aeruginosa; experiment: Synergistic antibacterial activity against Pseudomonas aeruginosa PAO1 assessed as fold reduction in bacterial survival rate at 50 uM incubated for 24 hrs in presence of 1/2 MIC of tobramycin by LB agar plate method relative to tobramycin alone; type: functional
[26] = tested on: Pseudomonas aeruginosa; experiment: Antibiofilm activity against Pseudomonas aeruginosa clinical isolate 0815 assessed as reduction in biofilm content at 10 uM incubated for 24 hrs by crystal violet staining based analysis; type: functional, organism-based
[27] = tested on: Pseudomonas aeruginosa; experiment: Synergistic antibacterial activity against Pseudomonas aeruginosa PAO1 assessed as fold reduction in bacterial survival rate incubated for 24 hrs in presence of meropenem by LB agar plate method; type: functional
[28] = Inhibition of quorum sensing system in Pseudomonas aeruginosa PAO1 transfected with mini-ctx-lacZ reporter gene assessed as decrease in beta-galactosidase activity at 1.25 to 20 uM incubated for 6 hrs by Miller assay; settings: dose 1.25-20 µM
[29] = tested on: Pseudomonas aeruginosa; experiment: Synergistic antibacterial activity against Pseudomonas aeruginosa PAO1 assessed as fold reduction in bacterial survival rate incubated for 24 hrs in presence of erythromycin by LB agar plate method; type: functional
[30] = tested on: Pseudomonas aeruginosa; experiment: Synergistic antibacterial activity against Pseudomonas aeruginosa PAO1 assessed as reduction in cell viability at 10 to 50 uM incubated for 24 hrs in the presence of 1/4 MIC of polymyxin B by LB agar plate method; type: functional, organism-based; settings: dose 10-50 µM
[31] = tested on: Pseudomonas aeruginosa; experiment: Synergistic antibacterial activity against Pseudomonas aeruginosa clinical isolate 0815 assessed as reduction in bacterial viability at 10 to 50 uM incubated for 24 hrs in presence of 1/4 MIC of polymyxin B by LB agar plate method; type: functional, organism-based; settings: dose 10-50 µM
[32] = tested on: Pseudomonas aeruginosa; experiment: Antivirulence activity in Pseudomonas aeruginosa clinical isolate 1121 assessed as reduction in elastase production at 10 uM incubated for 24 hrs by elastin-congo red dye based absorbance assay; type: functional, organism-based
[33] = tested on: Pseudomonas aeruginosa; experiment: Synergistic antibacterial activity against Pseudomonas aeruginosa clinical isolate 1121 assessed as reduction in bacterial viability at 10 to 50 uM incubated for 24 hrs in presence of 1/8 MIC of tobramycin by LB agar plate method; type: functional, organism-based; settings: dose 10-50 µM
[34] = tested on: Pseudomonas aeruginosa; experiment: Synergistic antibacterial activity against Pseudomonas aeruginosa clinical isolate 1167 assessed as reduction in bacterial viability at 10 to 50 uM incubated for 24 hrs in presence of 1/8 MIC of polymyxin B by LB agar plate method; type: functional, organism-based; settings: dose 10-50 µM

Question: For Cc1cc(=O)c(O)c(C(=O)NCCCCCCCCNc2ccnc3cc(Cl)ccc23)n1C.Cl, which Activity [1] is on record?
Answer: Active

Question: What about the “fold change (FC)” value [2] of the same compound?
Answer: <10

Question: What about the Activity [3] of the same compound?
Answer: Active

Question: What about the Activity [4] of the same compound?
Answer: Active

Question: And the Activity [5]?
Answer: Active

Question: And the Activity [6]?
Answer: Active

Question: And the “fold change (FC)” value [7]?
Answer: <10

Question: What about the Activity [8] of the same compound?
Answer: inactive

Question: What about the pIC50 [9] of the same compound?
Answer: 4.78

Question: And the hemolysis at 2 h, 200 µM [10]?
Answer: < 1.5%

Question: What about the survival at 10 µM [11] of the same compound?
Answer: 32.1%

Question: And the survival at 50 µM [12]?
Answer: 81.5%

Question: And the Activity [13]?
Answer: Active

Question: And the fold change (FC) [14]?
Answer: 16

Question: What about the Activity [15] of the same compound?
Answer: Active

Question: What about the Activity [16] of the same compound?
Answer: inactive

Question: What about the Activity [17] of the same compound?
Answer: Active

Question: And the Activity [18]?
Answer: inactive

Question: And the Activity [19]?
Answer: Active

Question: And the Activity [20]?
Answer: inactive

Question: And the pIC50 [21]?
Answer: 5.16

Question: And the Activity [22]?
Answer: Active

Question: And the Activity [23]?
Answer: Active

Question: What about the Activity [24] of the same compound?
Answer: inactive

Question: And the “fold change (FC)” value [25]?
Answer: ~60

Question: And the Activity [26]?
Answer: Active

Question: What about the “fold change (FC)” value [27] of the same compound?
Answer: <10

Question: And the inhibition [28]?
Answer: inactive

Question: What about the “fold change (FC)” value [29] of the same compound?
Answer: <10

Question: What about the Activity [30] of the same compound?
Answer: Active

Question: And the Activity [31]?
Answer: Active

Question: What about the Activity [32] of the same compound?
Answer: Active

Question: And the Activity [33]?
Answer: Active

Question: And the Activity [34]?
Answer: Active
